Patent US7514443B2, “Substituted pyrazolo[1,5-a]pyrimidines as inhibitors of metabotropic glutamate receptors” (Hoffmann-La Roche Inc., priority 2003, dated 2009)

Row | Compound | melting point
1 | Cc1cc(-c2cnn3c(C(F)(F)F)cc(-c4ccc(Br)cc4)nc23)cc(C)n1 [Example 4.57, 5-(4-Bromo-phenyl)-3-(2,6-dimethyl-pyridin-4-yl)-7-trifluoromethyl-pyrazolo[1,5-a]pyrimidine] | 258 °C
2 | Cc1cc(-c2ncn3c(C(F)(F)F)cc(-c4ccc(C(F)(F)F)c(C(F)(F)F)c4)nc23)ccn1 [Example 8.35, 2-(3,4-Bis-trifluoromethyl-phenyl)-8-(2-methyl-pyridin-4-yl)-4-trifluoromethyl-imidazo[1,5-a]pyrimidine] | 218 °C
3 | Cc1cc(-c2cc(C(F)(F)F)n3cnc(-c4ccncc4)c3n2)ccc1Cl [Example 8.10, 2-(4-Chloro-3-methyl-phenyl)-8-pyridin-4-yl-4-trifluoromethyl-imidazo[1,5-a]pyrimidine] | 254 °C
4 | Cc1cc(-c2ncn3c(C(F)(F)F)cc(-c4ccc(C(F)(F)F)c(OCC(F)(F)F)c4)nc23)ccn1 [Example 8.33, 8-(2-Methyl-pyridin-4-yl)-2-[3-(2,2,2-trifluoro-ethoxy)-4-trifluoromethyl-phenyl]-4-trifluoromethyl-imidazo[1,5-a]pyrimidine] | 189 °C
5 | Cc1cc(-c2cnn3c(C(F)(F)F)cc(-c4ccc(F)c(Cl)c4)nc23)cc(C)n1 [Example 4.21, 5-(3-Chloro-4-fluoro-phenyl)-3-(2,6-dimethyl-pyridin-4-yl)-7-trifluoromethyl-pyrazolo[1,5-a]pyrimidine] | 271 °C
6 | CCOc1ccc(-c2cc(C(F)(F)F)n3cnc(-c4ccncc4)c3n2)cc1C(F)(F)F [Example 8.17, 2-(4-Ethoxy-3-trifluoromethyl-phenyl)-8-pyridin-4-yl-4-trifluoromethyl-imidazo[1,5-a]pyrimidine] | 244 °C
7 | Cc1ccc(-c2cc(C(F)(F)F)n3cnc(-c4ccncc4)c3n2)cc1C(F)(F)F [Example 8.16, 2-(4-Methyl-3-trifluoromethyl-phenyl)-8-pyridin-4-yl-4-trifluoromethyl-imidazo[1,5-a]pyrimidine] | 222 °C
8 | N#Cc1ncn2c(C(F)(F)F)cc(-c3ccccn3)nc12 [Example 5.25, 2-Pyridin-2-yl-4-trifluoromethyl-imidazo[1,5-a]pyrimidine-8-carbonitrile] | 205 °C
9 | FC(F)(F)c1cc(-c2ccc(Cl)cc2)nc2c(-c3cccnc3)ncn12 [Example 8.2, 2-(4-Chloro-phenyl)-8-pyridin-3-yl-4-trifluoromethyl-imidazo[1,5-a]pyrimidine] | 206 °C
10 | Cc1cc(-c2cnn3c(C(F)(F)F)cc(-c4ccc(OCC(F)(F)F)c(C(F)(F)F)c4)nc23)cc(C)n1 [Example 4.45, 5-[4-(2,2,2-Trifluoroethoxy)-3-trifluoromethyl-phenyl]-3-(2,6-dimethyl-pyridin-4-yl)-7-trifluoromethyl-pyrazolo[1,5-a]pyrimidine] | 229 °C
11 | FC(F)(F)COc1cc(-c2cc(C(F)(F)F)n3ncc(-c4ccncc4)c3n2)ccc1C(F)(F)F [Example 4.50, 3-Pyridin-4-yl-5-[3-(2,2,2-trifluoro-ethoxy)-4-trifluoromethyl-phenyl]-7-trifluoromethyl-pyrazolo[1,5-a]pyrimidine] | 251 °C
12 | FC(F)(F)c1cc(-c2ccc(Cl)c(Cl)c2)nc2c(-c3ccncc3)cnn12 [Example 4.10, 5-(3,4-Dichloro-phenyl)-3-pyridin-4-yl-7-trifluoromethyl-pyrazolo[1,5-a]pyrimidine] | 260 °C
13 | Fc1ccc(-c2cc(C(F)(F)F)n3ncc(-c4ccncc4)c3n2)cc1Cl [Example 4.7, 5-(3-Chloro-4-fluoro-phenyl)-3-pyridin-4-yl-7-trifluoromethyl-pyrazolo[1,5-a]pyrimidine] | 265 °C
14 | N#Cc1ncn2c(C(F)(F)F)cc(-c3cccnc3)nc12 [Example 5.26, 2-Pyridin-3-yl-4-trifluoromethyl-imidazo[1,5-a]pyrimidine-8-carbonitrile] | 222 °C
15 | FC(F)(F)c1cc(-c2ccc(Cl)cc2)nc2c(-c3ccncc3)ncn12 [Example 8.9, 2-(4-Chloro-phenyl)-8-pyridin-4-yl-4-trifluoromethyl-imidazo[1,5-a]pyrimidine] | 290 °C
16 | COc1ccc(-c2cc(C(F)F)n3ncc(-c4ccncc4)c3n2)cc1 [Example 9.5, 7-Difluoromethyl-5-(4-methoxy-phenyl)-3-pyridin-4-yl-pyrazolo[1,5-a]pyrimidine] | 206 °C
17 | N#Cc1cnn2c(C(F)(F)F)cc(-c3ccc(F)cc3)nc12 [Example 1.9, 5-(4-Fluoro-phenyl)-7-trifluoromethyl-pyrazolo[1,5-a]pyrimidine-3-carbonitrile] | 198 °C
18 | Cc1nn2c(C(F)(F)F)cc(-c3ccc(C(F)(F)F)cc3)nc2c1C#N [Example 2.1, 2-Methyl-5-(4-trifluoromethyl-phenyl)-7-trifluoromethyl-pyrazolo[1,5-a]pyrimidine-3-carbonitrile] | 184 °C
19 | N#Cc1cnn2c(C(F)(F)F)cc(-c3ccc(Cl)cc3Cl)nc12 [Example 1.4, 5-(2,4-Dichloro-phenyl)-7-trifluoromethyl-pyrazolo[1,5-a]pyrimidine-3-carbonitrile] | 180 °C

Row | Compound | melting point
20 | FC(F)(F)COc1ccc(-c2cc(C(F)(F)F)n3cnc(-c4ccncc4)c3n2)cc1C(F)(F)F [Example 8.18, 8-Pyridin-4-yl-2-[4-(2,2,2-trifluoro-ethoxy)-3-trifluoromethyl-phenyl]-4-trifluoromethyl-imidazo[1,5-a]pyrimidine] | 269 °C
21 | Cc1cc(-c2ncn3c(C(F)(F)F)cc(-c4ccc(C(F)(F)F)cc4)nc23)ccn1 [Example 8.24, 8-(2-Methyl-pyridin-4-yl)-4-trifluoromethyl-2-(4-trifluoromethyl-phenyl)-imidazo[1,5-a]pyrimidine] | 257 °C
22 | Cc1cc(-c2cc(C(F)(F)F)n3ncc(-c4ccnc(CO)c4)c3n2)ccc1Cl [Example 6.3, {4-[5-(4-Chloro-3-methyl-phenyl)-7-trifluoromethyl-pyrazolo[1,5-a]pyrimidin-3-yl]-pyridin-2-yl}-methanol] | 220 °C
23 | N#Cc1ncn2c(C(F)(F)F)cc(-c3ccc(OCC(F)(F)F)c(C(F)(F)F)c3)nc12 [Example 5.24, 2-(4-Trifluoroethoxy-3-trifluoromethyl-phenyl)-4-trifluoromethyl-imidazo[1,5-a]pyrimidine-8-carbonitrile] | 189 °C
24 | Cc1cc(-c2cnn3c(C(F)(F)F)cc(-c4cccc(C(F)(F)F)c4)nc23)ccn1 [Example 4.34, 5-(3-Trifluoromethyl-phenyl)-3-(2-methyl-pyridin-4-yl)-7-trifluoromethyl-pyrazolo[1,5-a]pyrimidine] | 232 °C
25 | Cc1cc(-c2cc(C(F)(F)F)n3ncc(C#N)c3n2)ccc1Cl [Example 1.15, 5-(4-Chloro-3-methyl-phenyl)-7-trifluoromethyl-pyrazolo[1,5-a]pyrimidine-3-carbonitrile] | 216 °C
26 | Cc1cc(-c2cnn3c(C(F)(F)F)cc(-c4ccc(Cl)cc4)nc23)ccn1 [Example 4.29, 5-(4-Chloro-phenyl)-3-(2-methyl-pyridin-4-yl)-7-trifluoromethyl-pyrazolo[1,5-a]pyrimidine] | 220 °C
27 | CCOc1cc(-c2cc(C(F)(F)F)n3cnc(-c4ccncc4)c3n2)ccc1C(F)(F)F [Example 8.30, 2-(3-Ethoxy-4-trifluoromethyl-phenyl)-8-pyridin-4-yl-4-trifluoromethyl-imidazo[1,5-a]pyrimidine] | 212 °C
28 | Cc1cc(-c2cnn3c(C(F)(F)F)cc(-c4ccc(C(F)(F)F)cc4)nc23)ccn1 [Example 4.33, 5-(4-Trifluoromethyl-phenyl)-3-(2-methyl-pyridin-4-yl)-7-trifluoromethyl-pyrazolo[1,5-a]pyrimidine] | 243 °C
29 | FC(F)(F)c1ccc(-c2cc(C(F)(F)F)n3ncc(-c4cccnc4)c3n2)cc1 [Example 4.14, 5-(4-Trifluoromethyl-phenyl)-3-pyridin-3-yl-7-trifluoromethyl-pyrazolo[1,5-a]pyrimidine] | 163 °C
30 | N#Cc1ncn2c(C(F)(F)F)cc(-c3cccc(Cl)c3)nc12 [Example 5.3, 2-(3-Chloro-phenyl)-4-trifluoromethyl-imidazo[1,5-a]pyrimidine-8-carbonitrile] | 221 °C
31 | Cc1cc(-c2cc(C(F)(F)F)n3ncc(-c4cccnc4)c3n2)ccc1C(F)(F)F [Example 4.36, 5-(3-Methyl-4-trifluoromethyl-phenyl)-3-pyridin-3-yl-7-trifluoromethyl-pyrazolo[1,5-a]pyrimidine] | 177 °C
32 | Cc1cc(-c2ncn3c(C(F)(F)F)cc(-c4ccc(C(F)(F)F)c(C)c4)nc23)ccn1 [Example 8.29, 2-(3-Methyl-4-trifluoromethyl-phenyl)-8-(2-methyl-pyridin-4-yl)-4-trifluoromethyl-imidazo[1,5-a]pyrimidine] | 243 °C
33 | Cc1cc(-c2cnn3c(C(F)(F)F)cc(-c4ccc(C(F)(F)F)c(F)c4)nc23)cc(C)n1 [Example 4.25, 5-(3-Fluoro-4-trifluoromethyl-phenyl)-3-(2,6-dimethyl-pyridin-4-yl)-7-trifluoromethyl-pyrazolo[1,5-a]pyrimidine] | 245 °C
34 | FC(F)(F)COc1ccc(-c2cc(C(F)(F)F)n3ncc(-c4cccnc4)c3n2)cc1C(F)(F)F [Example 4.42, 5-(4-Trifluoroethoxy-3-trifluoromethyl-phenyl)-3-pyridin-3-yl-7-trifluoromethyl-pyrazolo[1,5-a]pyrimidine] | 181 °C
35 | Fc1cc(-c2cc(C(F)(F)F)n3cnc(-c4ccncc4)c3n2)ccc1C(F)(F)F [Example 8.15, 2-(3-Fluoro-4-trifluoromethyl-phenyl)-8-pyridin-4-yl-4-trifluoromethyl-imidazo[1,5-a]pyrimidine] | 267 °C
36 | Cc1ccc(-c2cc(C(F)(F)F)n3cnc(-c4cccnc4)c3n2)cc1C(F)(F)F [Example 8.7, 2-(4-Methyl-3-trifluoromethyl-phenyl)-8-pyridin-3-yl-4-trifluoromethyl-imidazo[1,5-a]pyrimidine] | 236 °C
37 | N#Cc1cnn2c(C(F)(F)F)cc(-c3ccc(C(F)(F)F)c(F)c3)nc12 [Example 1.17, 5-(3-Fluoro-4-trifluoromethyl-phenyl)-7-trifluoromethyl-pyrazolo[1,5-a]pyrimidine-3-carbonitrile] | 184 °C
